These results are taken from publication PMC6838013, “Insight Into Mosquito GnRH-Related Neuropeptide Receptor Specificity Revealed Through Analysis of Naturally Occurring and Synthetic Analogs of This Neuropeptide Family” (Frontiers in Endocrinology, 2019).

A word on the EC50: it is the concentration giving half of the maximal effect.

Assay [1] has as its target A. aegypti AKHR-IA receptor (AKHR-IA) (Aedes aegypti, UniProt A0A2P1A8S4). The assay is described as follows: Calcium bioluminescence (aequorin) reporter assay of heterologously expressed AKHR-IA. It is filed as cell-based. To be noted: for Fold-reduction in activity relative to Aedae-AKH: AKHR-IA in CHO-K1 aequorin cells, relative to native Aedae-AKH; for EC50: CHO-K1 cells stably expressing aequorin, transiently transfected with AKHR-IA (pcDNA3.1+), luminescence 20 s, 3 to 4 independent biological replicates, ND = no determined EC50 due to minimal or no detectable activity up to 10 μM. As to the method: For each construct, an overnight liquid culture of clonal recombinant bacteria containing the appropriate plasmid construct was grown in antibiotic-containing LB media and used to isolate midiprep DNA using the PureLink Midiprep kit (Life Technologies, Burlington, ON). Midiprep samples were then quantified and sent for sequencing as described previously ([26], [27]).
(§1) Functional activation of the AedaeACPR and AedaeAKHR-IA receptors was carried out following a previously described mammalian cell culture system involving a Chinese hamster ovary (CHO)-K1 cell line stably expressing aequorin ([43]). Cells were grown in DMEM:F12 media containing 10% heat-inactivated fetal bovine serum (Wisent, St. Bruno, QC), 200 μg/mL Geneticin, 1x antimycotic-antibiotic to approximately 90% confluency, and were transiently transfected using either Lipofectamine LTX with Plus Reagent or Lipofectamine 3000 transfection systems (Invitrogen, Burlington, ON) following manufacturer recommended DNA to transfection reagent ratios. Cells were detached from the culture flasks at 48 h post-transfection using 5 mM EDTA in Dulbecco's PBS. Cells were then prepared for the receptor functional assay following a procedure described previously ([27]). Stocks of peptide analogs of ACP and AKH were used for preparation of serial dilutions all of which were prepared in assay media (0.1% BSA in DMEM:F12) and loaded in quadruplicates into 96-well white luminescence plates (Greiner Bio-One, Germany). Cells were loaded with an automatic injector into each well of the plate containing different peptide analogs at various concentrations as well as negative control (assay media alone) and positive control wells (50 μM ATP). Immediately after injection of the cells, luminescence was measured for 20 s using a Synergy 2 Multi-Mode Microplate Reader (BioTek, Winooski, VT, USA). Calculations, including determination of EC50 values, were conducted in GraphPad Prism 7.02 (GraphPad Software, San Diego, USA) from dose-response curves from 3 to 4 independent biological replicates.
For orientation: In a reporter assay the amount or activity of a reporter protein is the signal.

The subject of assay [2] is A. aegypti ACP receptor (AedaeACPR). The assay is described as follows: Calcium bioluminescence (aequorin) reporter assay of heterologously expressed ACPR. To be noted: for Fold-reduction in activity relative to AedaeACP: ACPR in CHO-K1 aequorin cells, relative to native Aedae-ACP; for EC50: CHO-K1 cells stably expressing aequorin, transiently transfected with ACPR and murine Gα15 (pBudCE4.1), luminescence 20 s, 3 to 4 independent biological replicates, ND = no determined EC50 due to minimal or no detectable activity up to 10 μM; for Activity on ACPR at the highest tested dose, in words: 10 μM, Figure 2, ANOVA and Tukey post-test. The format is cell-based, Aedes aegypti.
Description: Therefore, to improve the bioluminescent signal linked to calcium mobilization following receptor activation, which was required in order to provide greater signal to noise ratio when testing ACP analogs with substitutions leading to intermediate levels of activation of the ACPR, we created a new mammalian expression construct using the dual promoter vector, pBudCE4.1. Specifically, we utilized a cloning strategy as reported previously ([41]) whereby the ACPR was inserted into the multiple cloning site (MCS) downstream of the CMV promoter in pBudCE4.1 using the sense primer SalI-KozakACPR, 5′-[…]-3′ and anti-sense primer XbaI-ACPR, 5′-[…]-3′, which directionally inserted the ACPR within the MCS downstream of the CMV promoter. Secondly, the murine homolog (Gα15) of the human promiscuous G protein, Gα16, which indiscriminately couples a wide variety of GPCRs to calcium signaling ([42]) was inserted into the MCS downstream of the EF1-α promoter in pBudCE4.1 using the sense primer NotI-Gα15, 5′-[…]-3′ and anti-sense primer BglII-Gα15, 5′-[…]-3′, which directionally inserted the murine Gα15 within the MCS downstream of the EF1-α promoter.
as §1

Values joined by “and” are separate entries in the source; they are usually repeats but may differ in a detail not shown here. Equal values may be shown once. Non-standard residues stand in square brackets, D forms with d. Residues, ends and D or L forms follow the SMILES beside them. pGlu = O=C1CC[C@@H](C(=O)O)N1 Some results are limits rather than exact numbers.

Sequence of A. aegypti AKHR-IA receptor (AKHR-IA) (A0A2P1A8S4 1-410): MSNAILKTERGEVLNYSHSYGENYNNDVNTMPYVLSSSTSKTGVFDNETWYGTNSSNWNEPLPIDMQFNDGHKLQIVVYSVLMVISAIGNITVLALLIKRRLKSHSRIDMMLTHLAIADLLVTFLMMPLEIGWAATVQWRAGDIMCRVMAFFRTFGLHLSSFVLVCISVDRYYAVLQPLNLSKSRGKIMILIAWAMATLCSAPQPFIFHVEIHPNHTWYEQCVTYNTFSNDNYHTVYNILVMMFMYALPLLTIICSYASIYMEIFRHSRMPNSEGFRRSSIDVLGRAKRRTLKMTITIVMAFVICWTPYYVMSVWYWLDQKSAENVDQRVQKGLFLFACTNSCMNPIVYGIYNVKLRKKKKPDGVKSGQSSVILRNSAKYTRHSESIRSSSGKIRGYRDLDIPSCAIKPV

Take `CC(C)C[C@H](NC(=O)[C@@H]1CCC(=O)N1)C(=O)N[C@@H](CC(N)=O)C(=O)N[C@@H](Cc1ccccc1)C(=O)N[C@H](C(=O)N1CCC[C@H]1C(=O)N[C@@H](CC(N)=O)C(=O)N[C@@H](Cc1c[nH]c2ccccc12)C(N)=O)[C@@H](C)O` [Pyrap-AKH] ([pGlu]LNFTPNW-NH2): in assay [1], the “Fold-reduction in activity relative to Aedae-AKH” value is 337 fold and 336.7 fold; the concentration for a half-maximal effect (EC50) was 727 nM.
In the case of `CC(C)[C@H](NC(=O)[C@@H]1CCC(=O)N1)C(=O)N[C@H](C(=O)N[C@@H](Cc1ccccc1)C(=O)N[C@@H](CO)C(=O)N[C@@H](CCCNC(=N)N)C(=O)N[C@@H](C)C(=O)N[C@@H](Cc1c[nH]c2ccccc12)C(=O)N[C@@H](CC(N)=O)C(=O)N[C@@H](C)C(N)=O)[C@@H](C)O` [Aedae-ACP (A7)] ([pGlu]VTFSRAWNA-NH2), in assay [2], the “Fold-reduction in activity relative to AedaeACP” value came to 15.9 fold and the EC50 was 386 nM.
As for “pQLTFTPSWamide [Aedae-AKH, endogenous octapeptide adipokinetic hormone of Aedes aegypti]”, in assay [2], the “Activity on ACPR at the highest tested dose, in words” value (“Activity on ACPR” below) was “inactive”.
On to `CC[C@H](C)[C@H](NC(=O)[C@@H]1CCC(=O)N1)C(=O)N[C@H](C(=O)N[C@@H](Cc1ccccc1)C(=O)N[C@@H](CO)C(=O)N[C@@H](CCCNC(=N)N)C(=O)N[C@@H](CC(=O)O)C(=O)N[C@@H](Cc1c[nH]c2ccccc12)C(=O)N[C@@H](CC(N)=O)C(=O)N[C@@H](C)C(N)=O)[C@@H](C)O` [Grybi-ACP] ([pGlu]ITFSRDWNA-NH2), for which, in assay [2], the “Activity on ACPR” value was “failed to reach full ACPR activation”; the “Fold-reduction in activity relative to AedaeACP” value is recorded as 13.6 fold; the EC50 came to 326 nM.
On to `CC(C)[C@H](NC(=O)[C@@H]1CCC(=O)N1)C(=O)N[C@H](C(=O)N[C@@H](Cc1ccccc1)C(=O)N[C@@H](CO)C(=O)N[C@@H](C)C(=O)N[C@@H](CC(=O)O)C(=O)N[C@@H](Cc1c[nH]c2ccccc12)C(=O)N[C@@H](CC(N)=O)C(=O)N[C@@H](C)C(N)=O)[C@@H](C)O` [Aedae-ACP (A6)] ([pGlu]VTFSADWNA-NH2), for which, in assay [2], the “Fold-reduction in activity relative to AedaeACP” value amounted to 23.3 fold and the EC50 was 687 nM.
As to “pQ-TFSRDWNAamide [Aedae-ACP (1,3-10), internally truncated ACP analog lacking valine in the second position]”, the “Fold-reduction in activity relative to AedaeACP” value in assay [2] was >1,000 fold.
`CC(C)[C@H](NC(=O)[C@@H]1CCC(=O)N1)C(=O)N[C@H](C(=O)N[C@@H](Cc1ccccc1)C(=O)N[C@@H](CO)C(=O)N[C@@H](CCCNC(=N)N)C(=O)N[C@@H](CC(=O)O)C(=O)N[C@@H](Cc1c[nH]c2ccccc12)C(N)=O)[C@@H](C)O` [Aedae-ACP (1-8)] ([pGlu]VTFSRDW-NH2): in assay [2], the “Fold-reduction in activity relative to AedaeACP” value was found to be 410.1 fold and the EC50 is 2160 nM.
On to `CC(C)C[C@H](NC(=O)[C@@H]1CCC(=O)N1)C(=O)N[C@H](C(=O)N[C@@H](Cc1ccccc1)C(=O)N[C@H](C(=O)N1CCC[C@H]1C(=O)N[C@@H](CC(N)=O)C(=O)N[C@@H](Cc1c[nH]c2ccccc12)C(N)=O)[C@@H](C)O)[C@@H](C)O` [Peram-CAH-II] ([pGlu]LTFTPNW-NH2), for which, in assay [1], the “Fold-reduction in activity relative to Aedae-AKH” value is recorded as 1.0 fold and the EC50 was determined as 2.23 nM.
Take “pQVTASRDWNAamide [Aedae-ACP (A4), synthetic ACP analog, alanine at position 4]”: in assay [2], the “Fold-reduction in activity relative to AedaeACP” value is >1,000 fold.
Regarding `CC(C)[C@H](NC(=O)[C@@H]1CCC(=O)N1)C(=O)N[C@H](C(=O)N[C@@H](Cc1ccccc1)C(=O)N[C@@H](CO)C(=O)N[C@@H](CCCNC(=N)N)C(=O)N[C@@H](CC(=O)O)C(=O)N[C@@H](Cc1c[nH]c2ccccc12)C(=O)N[C@@H](CC(N)=O)C(=O)N[C@@H](C)C(=O)NCC(N)=O)[C@@H](C)O` [Aedae-ACP (+G)] ([pGlu]VTFSRDWNAG-NH2), in assay [2], the “Fold-reduction in activity relative to AedaeACP” value turned out to be 5.6 fold and the EC50 was 111 nM.
Consider “pQLTFTSSWGGamide [Lacol-AKH, naturally-occurring insect AKH decapeptide]”, for which, in assay [2], the “Activity on ACPR” value is recorded as “low activity” and the “Fold-reduction in activity relative to AedaeACP” value is >1,000 fold.
Turning to `C[C@H](NC(=O)[C@H](CC(N)=O)NC(=O)[C@H](Cc1c[nH]c2ccccc12)NC(=O)[C@H](CC(=O)O)NC(=O)[C@H](CCCNC(=N)N)NC(=O)[C@H](CO)NC(=O)[C@H](Cc1ccccc1)NC(=O)[C@@H](NC(=O)[C@H](C)NC(=O)[C@@H]1CCC(=O)N1)[C@@H](C)O)C(N)=O` [Aedae-ACP (A2)] ([pGlu]ATFSRDWNA-NH2), the EC50 in assay [2] stood at 705 nM.
On to `CC(C)C[C@H](NC(=O)[C@@H]1CCC(=O)N1)C(=O)N[C@@H](CC(N)=O)C(=O)N[C@@H](Cc1ccccc1)C(=O)N[C@H](C(=O)N1CCC[C@H]1C(=O)N[C@@H](CO)C(=O)N[C@@H](Cc1c[nH]c2ccccc12)C(N)=O)[C@@H](C)O` [Erysi-AKH] ([pGlu]LNFTPSW-NH2), for which, in assay [1], the “Fold-reduction in activity relative to Aedae-AKH” value is 310 fold and 309.9 fold; the EC50 is 669 nM.
As for Ac-AVTFSRDWNA-NH2 [Aedae-ACP (A1b)], in assay [2], the “Fold-reduction in activity relative to AedaeACP” value is 43.6 fold and the concentration giving a half-maximal response (EC50) stood at 527 nM.
Regarding “pQVTFSRDANAamide [Aedae-ACP (A8), synthetic ACP analog, alanine at position 8]”, in assay [2], the “Fold-reduction in activity relative to AedaeACP” value was >1,000 fold.
In the case of “pQLTFTSS-amide [Lacol-AKH-7mer, C-terminally truncated synthetic analog based on an endogenous peptide from Laconobia oleracea]”, the “AKHR-IA activation at the highest tested concentration” value in assay [1] (10 μM, luminescence relative to maximal response with 10^−5M Aedae-AKH) is given as ~ 7%.
For the compound H-AVTFSRDWNA-NH2 [Aedae-ACP (A1)], in assay [2], the EC50 turned out to be 1580 nM.
Consider `CC(C)[C@H](NC(=O)[C@@H]1CCC(=O)N1)C(=O)N[C@H](C(=O)N[C@@H](Cc1ccccc1)C(=O)N[C@@H](CO)C(=O)N[C@@H](CCCNC(=N)N)C(=O)N[C@@H](CC(=O)O)C(=O)N[C@@H](Cc1c[nH]c2ccccc12)C(=O)N[C@@H](CC(N)=O)C(N)=O)[C@@H](C)O` [Aedae-ACP (1-9)] ([pGlu]VTFSRDWN-NH2), for which, in assay [2], the “Fold-reduction in activity relative to AedaeACP” value worked out at 434.2 fold and the EC50 is 4150 nM.
In the case of “pQVTFSRDWNA-OH [Aedae-ACP (-OH), non-amidated (free acid) ACP analog]”, the “Fold-reduction in activity relative to AedaeACP” value in assay [2] is >1,000 fold.
Regarding `CC(C)[C@H](NC(=O)[C@@H]1CCC(=O)N1)C(=O)N[C@H](C(=O)N[C@@H](Cc1ccccc1)C(=O)N[C@@H](CO)C(=O)N[C@@H](CCCNC(=N)N)C(=O)N[C@@H](CC(=O)O)C(=O)N[C@@H](Cc1c[nH]c2ccccc12)C(=O)N[C@@H](C)C(=O)N[C@@H](C)C(N)=O)[C@@H](C)O` [Aedae-ACP (A9)] ([pGlu]VTFSRDWAA-NH2), in assay [2], the “Fold-reduction in activity relative to AedaeACP” value amounted to 0.2 fold and the EC50 came out at 4.96 nM.
`CC(C)[C@H](NC(=O)[C@@H]1CCC(=O)N1)C(=O)N[C@H](C(=O)N[C@@H](Cc1ccccc1)C(=O)N[C@@H](C)C(=O)N[C@@H](CCCNC(=N)N)C(=O)N[C@@H](CC(=O)O)C(=O)N[C@@H](Cc1c[nH]c2ccccc12)C(=O)N[C@@H](CC(N)=O)C(=O)N[C@@H](C)C(N)=O)[C@@H](C)O` [Aedae-ACP (A5)] ([pGlu]VTFARDWNA-NH2): in assay [2], the “Fold-reduction in activity relative to AedaeACP” value stood at 44.9 fold and the EC50 was 1040 nM.
“pQLTFSSGWGNamide [Helze-AKH, naturally-occurring insect AKH decapeptide]”: in assay [2], the “Activity on ACPR” value was “low activity” and the “Fold-reduction in activity relative to AedaeACP” value is >1,000 fold.
